Assay results as given in ChEMBL document CHEMBL6092189, “Synthesis of kanamycin-azole hybrids and investigation of their antifungal activities” (Bioorg Med Chem, 2024).
In brackets after ≈: the same amount, converted by molar mass. Activity calls are given as the source filed them. The rule behind the calls is not given here.

Assays:
Candida tropicalis [1] = assay: Antifungal activity against Candida tropicalis 95-41 assessed as inhibition of fungal growth incubated for 48 hrs by two-fold dilution assay; assay type: functional
Cryptococcus neoformans [2] = assay: Antifungal activity against Cryptococcus neoformans H99 assessed as inhibition of fungal growth incubated for 48 hrs by two-fold dilution method; assay type: functional
Candida albicans [3] = assay: Antifungal activity against Candida albicans MYA2876 assessed as inhibition of fungal growth incubated for 48 hrs by two-fold dilution method; assay type: functional
[4] = Cytotoxicity against human HeLa cells assessed as reduction in cell viability incubated for 24 hrs by MTT assay; assay type: toxicity, cell-based
Candida albicans [5] = assay: Antifungal activity against azole-resistant Candida albicans 64124 assessed as inhibition of fungal growth incubated for 48 hrs by two-fold dilution method; assay type: functional
Staphylococcus aureus = assay: Antibacterial activity against Staphylococcus aureus ATCC 25923 assessed as inhibition of bacterial growth incubated for 18 hrs by two-fold dilution method; assay type: functional
Candida parapsilosis [6] = assay: Antifungal activity against azole-resistant Candida parapsilosis Cas08-0490 assessed as inhibition of fungal growth incubated for 48 hrs by two-fold dilution method; assay type: functional; details: Lodderomyces parapsilosis
Cryptococcus neoformans [7] = assay: Antifungal activity against Cryptococcus neoformans VR-54 assessed as inhibition of fungal growth incubated for 48 hrs by two-fold dilution assay; assay type: functional
Diutina rugosa [8] = assay: Antifungal activity against Candida rugosa 95-967 assessed as inhibition of fungal growth incubated for 48 hrs by two-fold dilution assay; assay type: functional
Escherichia coli = assay: Antibacterial activity against Escherichia coli ATCC 25922 assessed as inhibition of bacterial growth incubated for 18 hrs by two-fold dilution method; assay type: functional
Cell membrane [9] = assay: Induction of membrane permeabilization in azole-resistant Candida parapsilosis Cas08-0490 assessed as pore formation by measuring fluorescence intensity at 256 ug/ml measured after 25 mins by SYTOX Green dye based fluorescence analysis; assay type: subcellular; details: dose 256.0 µg/ml
Cell membrane [10] = assay: Induction of membrane permeabilization in Candida rugosa 95-967 assessed as pore formation by measuring fluorescence intensity at 256 ug/ml measured after 25 mins by SYTOX Green dye based fluorescence analysis; assay type: subcellular; details: Diutina rugosa, dose 256.0 µg/ml
Cell membrane [11] = assay: Induction of membrane permeabilization in Candida albicans 64124 assessed as pore formation by measuring increase in fluorescence intensity at 1/4X MIC measured after 5 mins by SYTOX Green dye based fluorescence analysis
Cell membrane [12] = assay: Induction of membrane permeabilization in Candida albicans MYA2876 assessed as pore formation by measuring increase in fluorescence intensity at 1/4X MIC measured after 5 mins by SYTOX Green dye based fluorescence analysis
Cryptococcus neoformans [13] = assay: Antifungal activity against Cryptococcus neoformans VR-54 assessed as fractional inhibitory concentration index incubated for 48 hrs in presence of kanamycin by microdilution checkerboard assay; assay type: functional
Candida albicans [14] = assay: Antifungal activity against azole-resistant Candida albicans 64124 assessed as fractional inhibitory concentration index incubated for 48 hrs in presence of kanamycin by microdilution checkerboard assay; assay type: functional
Diutina rugosa [15] = assay: Antifungal activity against Candida rugosa 95-967 assessed as fractional inhibitory concentration index incubated for 48 hrs in presence of kanamycin by microdilution checkerboard assay; assay type: functional
Candida parapsilosis [16] = assay: Antifungal activity against azole-resistant Candida parapsilosis Cas08-0490 assessed as fractional inhibitory concentration index incubated for 48 hrs in presence of kanamycin by microdilution checkerboard assay; assay type: functional
Candida tropicalis [17] = assay: Antifungal activity against Candida tropicalis 95-41 assessed as fractional inhibitory concentration index incubated for 48 hrs in presence of kanamycin by microdilution checkerboard assay; assay type: functional
Cryptococcus neoformans [18] = assay: Antifungal activity against Cryptococcus neoformans H99 assessed as fractional inhibitory concentration index incubated for 48 hrs in presence of kanamycin by microdilution checkerboard assay; assay type: functional
Candida albicans [19] = assay: Antifungal activity against Candida albicans MYA2876 assessed as fractional inhibitory concentration index incubated for 48 hrs in presence of kanamycin by microdilution checkerboard assay; assay type: functional

Structure (SMILES)	MIC (Candida tropicalis [1])	MIC (Cryptococcus neoformans [2])	MIC (Candida albicans [3])	IC50 at 24 h [4]	MIC (Candida albicans [5])	MIC (Staphylococcus aureus)	MIC (Candida parapsilosis [6])	MIC (Cryptococcus neoformans [7])	MIC (Diutina rugosa [8])	MIC (Escherichia coli)	also measured
Cl.Cl.Cl.Cl.NC[C@H]1O[C@H](O[C@H]2[C@H](O)[C@@H](O[C@H]3O[C@H](Cn4cc(CNC(=O)c5ccc(Cl)cc5Cl)nn4)[C@@H](O)[C@H](N)[C@H]3O)[C@H](N)C[C@@H]2N)[C@H](O)[C@@H](O)[C@@H]1O	≥ 256 µg/mL	≥ 256 µg/mL	≥ 256 µg/mL	> 100 µg/mL	≥ 256 µg/mL	128 µg/mL	≥ 256 µg/mL	≥ 256 µg/mL	≥ 256 µg/mL	128 µg/mL	–
Cl.Cl.Cl.Cl.NC[C@H]1O[C@H](O[C@H]2[C@H](O)[C@@H](O[C@H]3O[C@H](Cn4cc(COC(Cn5cncn5)c5ccc(Cl)cc5Cl)nn4)[C@@H](O)[C@H](N)[C@H]3O)[C@H](N)C[C@@H]2N)[C@H](O)[C@@H](O)[C@@H]1O (stereo partly drawn)	32 µg/mL	16 µg/mL	16 µg/mL	> 100 µg/mL	16 µg/mL	128 µg/mL	≥ 256 µg/mL	32 µg/mL	≥ 256 µg/mL	≥ 256 µg/mL	Activity (Cell membrane [9]): inactive; Activity (Cell membrane [10]): inactive; Activity (Cell membrane [11]): Active; Activity (Cell membrane [12]): Active
Cl.Cl.Cl.Cl.NC[C@H]1O[C@H](O[C@H]2[C@H](O)[C@@H](O[C@H]3O[C@H](Cn4cc(COC(Cn5cncn5)c5ccc(F)cc5F)nn4)[C@@H](O)[C@H](N)[C@H]3O)[C@H](N)C[C@@H]2N)[C@H](O)[C@@H](O)[C@@H]1O (stereo partly drawn)	≥ 256 µg/mL	≥ 256 µg/mL	≥ 256 µg/mL	> 100 µg/mL	≥ 256 µg/mL	≥ 256 µg/mL	≥ 256 µg/mL	≥ 256 µg/mL	≥ 256 µg/mL	≥ 256 µg/mL	–
OC(Cn1cncn1)(Cn1cncn1)c1ccc(F)cc1F [FLUCONAZOLE]	2 µg/mL (≈ 6.53 µM)	1 µg/mL (≈ 3.27 µM)	128 µg/mL (≈ 418 µM)	–	≥ 256 µg/mL	–	16 µg/mL (≈ 52.2 µM)	1 µg/mL (≈ 3.27 µM)	8 µg/mL (≈ 26.1 µM)	–	–
OC(Cn1cncn1)c1ccc(Cl)cc1Cl (stereo not drawn)	32 µg/mL (≈ 124 µM)	64 µg/mL (≈ 248 µM)	64 µg/mL (≈ 248 µM)	–	128 µg/mL (≈ 496 µM)	–	64 µg/mL (≈ 248 µM)	32 µg/mL (≈ 124 µM)	64 µg/mL (≈ 248 µM)	–	fractional inhibitory concentration index (FICI) (Cryptococcus neoformans [13]): 1; fractional inhibitory concentration index (FICI) (Candida albicans [14]): 1; fractional inhibitory concentration index (FICI) (Diutina rugosa [15]): 2.25; fractional inhibitory concentration index (FICI) (Candida parapsilosis [16]): 2; fractional inhibitory concentration index (FICI) (Candida tropicalis [17]): 1.5; fractional inhibitory concentration index (FICI) (Cryptococcus neoformans [18]): 1; fractional inhibitory concentration index (FICI) (Candida albicans [19]): 1
NC[C@H]1O[C@H](O[C@H]2[C@H](O)[C@@H](O[C@H]3O[C@H](CO)[C@@H](O)[C@H](N)[C@H]3O)[C@H](N)C[C@@H]2N)[C@H](O)[C@@H](O)[C@@H]1O [KANAMYCIN]	≥ 256 µg/mL	128 µg/mL (≈ 264 µM)	≥ 256 µg/mL	–	≥ 256 µg/mL	1 µg/mL (≈ 2.06 µM)	≥ 256 µg/mL	≥ 256 µg/mL	≥ 256 µg/mL	4 µg/mL (≈ 8.26 µM)	–
Cl.Cl.Cl.Cl.NC[C@H]1O[C@H](O[C@H]2[C@H](O)[C@@H](O[C@H]3O[C@H](Cn4cc(CNC(=O)c5ccccc5Cl)nn4)[C@@H](O)[C@H](N)[C@H]3O)[C@H](N)C[C@@H]2N)[C@H](O)[C@@H](O)[C@@H]1O	≥ 256 µg/mL	64 µg/mL	≥ 256 µg/mL	> 100 µg/mL	≥ 256 µg/mL	≥ 256 µg/mL	≥ 256 µg/mL	≥ 256 µg/mL	≥ 256 µg/mL	128 µg/mL	–
Cl.Cl.Cl.Cl.NC[C@H]1O[C@H](O[C@H]2[C@H](O)[C@@H](O[C@H]3O[C@H](Cn4cc(COC(Cn5ccnc5)c5ccc(Cl)cc5Cl)nn4)[C@@H](O)[C@H](N)[C@H]3O)[C@H](N)C[C@@H]2N)[C@H](O)[C@@H](O)[C@@H]1O (stereo partly drawn)	64 µg/mL	64 µg/mL	128 µg/mL	> 100 µg/mL	32 µg/mL	128 µg/mL	≥ 256 µg/mL	64 µg/mL	≥ 256 µg/mL	≥ 256 µg/mL	Activity (Cell membrane [9]): inactive; Activity (Cell membrane [10]): inactive; Activity (Cell membrane [11]): Active; Activity (Cell membrane [12]): Active
Cl.Cl.Cl.Cl.NC[C@H]1O[C@H](O[C@H]2[C@H](O)[C@@H](O[C@H]3O[C@H](Cn4cc(COC(Cn5ccnc5)c5ccc(F)cc5F)nn4)[C@@H](O)[C@H](N)[C@H]3O)[C@H](N)C[C@@H]2N)[C@H](O)[C@@H](O)[C@@H]1O (stereo partly drawn)	8 µg/mL	64 µg/mL	128 µg/mL	> 100 µg/mL	128 µg/mL	64 µg/mL	≥ 256 µg/mL	128 µg/mL	≥ 256 µg/mL	64 µg/mL	–
Cl.Cl.Cl.Cl.NC[C@H]1O[C@H](O[C@H]2[C@H](O)[C@@H](O[C@H]3O[C@H](Cn4cc(CNC(=O)c5ccc(Cl)cc5)nn4)[C@@H](O)[C@H](N)[C@H]3O)[C@H](N)C[C@@H]2N)[C@H](O)[C@@H](O)[C@@H]1O	≥ 256 µg/mL	128 µg/mL	≥ 256 µg/mL	> 100 µg/mL	≥ 256 µg/mL	64 µg/mL	≥ 256 µg/mL	≥ 256 µg/mL	≥ 256 µg/mL	128 µg/mL	–
